Columns and labels:
[1] = system: HEK-293 (embryonic kidney); test: Cell growth inhibition, MTT assay, non-tumor HEK-293; assay type: cell-based; conditions: Homo sapiens, HEK293, 72 h, non-tumorigenic cell line
Procedure: The ability of the synthesized compounds to inhibit the cell proliferation of human cancer cell lines was assayed by measuring cell viability through the use of the MTT method 72 h after treatment. For this purpose, representative cell lines of the most frequent kinds of cancer were selected, including the following: HeLa (cervix epithelioid carcinoma), MCF7 (breast adenocarcinoma), U87 MG (glioblastoma), T98G (temozolomide resistant glioblastoma), HepG2 (hepatocellular carcinoma), HCT8 (colorectal carcinoma), and HT-29 (colon adenocarcinoma). […] The compounds were also tested against the non-tumor HEK-293 cells to study their selectivity toward cancer cells. […] The cell lines were obtained from ATTC (Manassas, VA, USA). […] The cells were periodically tested for Mycoplasma infection by using a MycoAlert kit (Lonza, Norwest, Australia), and only Mycoplasma-free cells were used in the experiments. […] Louis, MO, USA), which was dissolved in PBS at 5 mg/mL in accordance with the manufacturer's instructions. […] Untreated cells were used as negative controls. The antiproliferative activity of compounds was measured 72 h after drug exposure through the MTT assay. […] For this purpose, compounds were used at different concentrations, ranging from 10^-10 to 10^-2 M. Measurements were performed in triplicate, and each experiment was repeated three times. The IC50 values were determined using Origin software (version 9.6, OriginLab, Washington, DC, USA).

[2] = target: T1, microtubular protein isolated from calf brains (bovine brain tubulin) (Bos taurus, UniProt P81947+Q6B856); test: Tubulin polymerization inhibition (TPI); assay type: biochemical; conditions: in vitro tubulin polymerization, mean ± SD
T1 construct: from tissue; host or cells: calf (bovine) brain
Procedure: We evaluated the capacity of the new synthesized compounds to inhibit the polymerization of microtubular protein isolated from calf brains. The assays were performed by taking absorbance measurements to quantify the amount of polymer mass formed in the presence (or absence; negative controls) of the compounds.
Bovine brain tubulin was isolated as previously described by following a modified version of the Shelanski method. The protein was stored at −80 °C, and its concentration was determined by employing the Bradford method before each use. […] Tubulin polymerization, caused when heating the samples, was accompanied by an increase in the absorbance (at 450 nm) of the sample that was monitored by using a Helios α spectrophotometer. […] Measurements were performed in triplicate in two independent experiments using microtubular proteins from different preparations.

[3] = system: HeLa cells; test: Apoptotic cell death quantification, Annexin V-FITC/PI, HeLa; assay type: cell-based, human; conditions: 72 h, 100 nM
Procedure: To characterize the cell death mechanism induced by the representative compounds 10, 12, or 14 at 100 nM on HeLa, MCF7, and U87 MG cells, dual-channel flow cytometry studies were carried out for cells in the absence (negative control) or presence of compounds 72 h after treatment. Fluorescein isothiocyanate-labeled Annexin V (FITC-AnV) and propidium iodide (PI) were used for double staining. Regarding their response to AnV and PI, cells can be identified as viable (PI−, AnV−), early apoptotic (PI−, AnV+), late apoptotic or secondary necrotic (PI+, AnV+), or necrotic (PI+, AnV−). The translocation of the phosphatidylserine from the inner to the outer cell membrane causes the response of apoptotic cells to AnV, whereas only cells suffering some kind of membrane disintegration (late apoptotic or necrotic cells) allow PI permeation.
Following the manufacturer’s guidelines, an Annexin V-FITC/PI apoptosis detection kit (Immunostep, Salamanca, Spain) was used to quantify HeLa, MCF7, or U87 MG cells. Cells were seeded in 12-well plates (5·10^4 cells/mL, 1 mL/well) and incubated in complete DMEM medium (see above) at 37 °C and 5% CO2 atmosphere for 24 h. Then, the cells were treated with selected compounds (10, 12, or 14) at 100 nM, and untreated cells were used as negative controls. Then, 72 h after incubation, the cells were harvested, centrifugated, resuspended in the Annexin V binding buffer, and incubated in darkness with Annexin V-FITC/PI for 15 min at room temperature. The samples were analyzed by using a BD Accuri™ C6 Plus Flow Cytometer (BD Biosciences), and acquired data were analyzed via BD Accuri™ C6 Software (version 1.0.264.21).

[4] = system: MCF7 (breast adenocarcinoma); test: Cell growth inhibition, MTT assay, MCF7; assay type: cell-based; conditions: Homo sapiens
Procedure: The ability of the synthesized compounds to inhibit the cell proliferation of human cancer cell lines was assayed by measuring cell viability through the use of the MTT method 72 h after treatment. For this purpose, representative cell lines of the most frequent kinds of cancer were selected, including the following: HeLa (cervix epithelioid carcinoma), MCF7 (breast adenocarcinoma), U87 MG (glioblastoma), T98G (temozolomide resistant glioblastoma), HepG2 (hepatocellular carcinoma), HCT8 (colorectal carcinoma), and HT-29 (colon adenocarcinoma).
The cell lines were obtained from ATTC (Manassas, VA, USA). […] The cells were periodically tested for Mycoplasma infection by using a MycoAlert kit (Lonza, Norwest, Australia), and only Mycoplasma-free cells were used in the experiments.
Then, every compound was added (10 µL/well) to a final concentration of 10 µM. Untreated cells were used as negative controls. The antiproliferative activity of compounds was measured 72 h after drug exposure through the MTT assay. […] For this purpose, compounds were used at different concentrations, ranging from 10^−10 to 10^−2 M. Measurements were performed in triplicate, and each experiment was repeated three times. The IC50 values were determined using Origin software (version 9.6, OriginLab, Washington, DC, USA).

T1 sequence (Q6B856 whole entry): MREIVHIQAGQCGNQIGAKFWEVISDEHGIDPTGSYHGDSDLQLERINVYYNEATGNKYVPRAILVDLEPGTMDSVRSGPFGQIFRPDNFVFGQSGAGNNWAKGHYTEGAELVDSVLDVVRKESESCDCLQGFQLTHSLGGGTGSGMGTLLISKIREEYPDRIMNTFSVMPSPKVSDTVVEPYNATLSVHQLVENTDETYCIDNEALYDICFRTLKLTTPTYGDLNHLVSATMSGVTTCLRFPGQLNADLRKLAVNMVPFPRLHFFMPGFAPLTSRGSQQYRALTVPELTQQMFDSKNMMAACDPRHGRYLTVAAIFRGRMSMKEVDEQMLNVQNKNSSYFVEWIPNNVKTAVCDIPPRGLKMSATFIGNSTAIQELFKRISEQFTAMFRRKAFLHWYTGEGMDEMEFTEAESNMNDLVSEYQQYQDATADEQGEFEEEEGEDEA
T1 sequence (P81947 whole entry): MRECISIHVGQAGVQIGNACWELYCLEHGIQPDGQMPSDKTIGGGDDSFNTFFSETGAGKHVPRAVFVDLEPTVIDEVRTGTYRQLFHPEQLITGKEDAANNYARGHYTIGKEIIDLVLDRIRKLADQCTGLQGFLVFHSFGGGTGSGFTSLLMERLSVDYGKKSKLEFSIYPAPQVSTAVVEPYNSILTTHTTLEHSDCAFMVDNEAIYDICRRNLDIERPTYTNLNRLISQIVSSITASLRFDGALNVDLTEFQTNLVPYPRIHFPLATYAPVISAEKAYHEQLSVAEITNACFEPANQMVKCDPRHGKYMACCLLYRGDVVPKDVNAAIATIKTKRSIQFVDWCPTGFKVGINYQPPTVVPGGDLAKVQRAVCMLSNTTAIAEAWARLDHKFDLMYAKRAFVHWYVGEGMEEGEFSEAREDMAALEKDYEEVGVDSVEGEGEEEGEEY

IC50 [2] [nM] | IC50 ([4]; 72 h after drug exposure) [nM] | IC50 ([4]; mean ± SD, Table S1) [nM] | Compound | IC50 [1] [nM] | apoptosis (early and late apoptotic death) [3] [%]
1500 ± 100 | 38 | 38.4 ± 0.4 | CSc1cc(-c2nnnn2-c2ccc3c(ccn3C)c2)cc(Cl)n1 [Compound 10, 5-(5-(2-chloro-6-(methylsulfanyl)pyridin-4-yl)-1H-tetrazol-1-yl)-1-methyl-1H-indole] | 4390 | ~73
800 ± 100 | 26 | 26.2 ± 0.1 | CSc1cc(-c2nnnn2-c2ccc3c(c2)c(C=O)cn3C)cc(Cl)n1 [Compound 14, 5-(5-(2-chloro-6-(methylsulfanyl)pyridin-4-yl)-1H-tetrazol-1-yl)-1-methyl-1H-indole-3-carbaldehyde] | 2270 | 80
1300 ± 100 | 37 | 37.3 ± 0.2 | Cn1cc(C=O)c2cc(-n3nnnc3-c3cc(Cl)nc(Cl)c3)ccc21 [Compound 12, 5-(5-(2,6-dichloropyridin-4-yl)-1H-tetrazol-1-yl)-1-methyl-1H-indole-3-carbaldehyde] | 3080 | ~73

From PMC10342533, “Novel Tetrazole Derivatives Targeting Tubulin Endowed with Antiproliferative Activity against Glioblastoma Cells” (International Journal of Molecular Sciences, 2023)
